Laboratory results: patent US6485755B1, “Methods of using electron active compounds for managing cancer” (Marantech Holding, priority 2000, dated 2002)
Read-outs that look alike come from different tables or passages of the source.

Key:
[1] = persons not prone to silver allergies
Source text: Preferred routes of administration include topically and application to mucosa. Application can be made, for example, digitally or using a suitable applicator.

[2] = system: breast cancer
Method: A subject group was formed of thirty female residents of Central America aged 32 to 52 years who had been diagnosed as having breast cancer. […] The diagnosis of each subject was confirmed by biopsy and a mammogram was acquired from each subject.
Each subject was evaluated daily by an oncologist(s) and each received a single dosage of tetrasilver tetroxide by IV, i.e., intravenously, sufficient to provide a concentration in the bloodstream of 10 ppm. One-half of the patients received the dosage in 10 minutes by IV injection. The other half of the subjects received the dosage by IV injection over a 4-hour period.
As discussed below, the subjects were arranged in three histology groups. Within each histologic group, 50% of the subjects received the dosage via the 10 minute IV and the other 50% of the subjects received the dosage over the 4 hour period of time.
Prior to initiating treatment, the tetrasilver tetroxide was subjected a quality assurance protocol to reduce side effects.
Group I: Group I included 10 patients who had been diagnosed as having infiltrative canalicular breast carcinoma.
A 1 cm diameter biopsy fragment was sent to a pathologist laboratory.
Group II: Group II included 10 subjects were diagnosed as having ductile carcinoma special type, medular breast cancer.
Group III: Group III included ten patients diagnosed as having infiltrative lobular breast cancer.
For each of the three groups, the dosage was 10 ppm for every subject. The patients had 24-hour evaluations by three oncologists who were each responsible for an 8-hour time period. Every 4 hours, a professional nurse acquired vital signs from the subjects. Twenty-four hour hemodynamic monitoring was performed. The subjects walked 2 hours after they received the dosage and they were prescribed a free diet. Every twenty-four hours, urine was collected. Every seven days, the following laboratory tests were performed: a complete blood count, hemoglobin, hematocracity, vcm, vhcm, complete red blood cells, complete white blood cells, albumin, bilirubin, calcium, and cholesterol, creatine, glucose, ldh, potassium, sodium, triglyceride, uric acid, urea nitrogen, AST and SGOT.

[3] = system: A498; conditions: A498, estimated
Method: (§1) An independent laboratory performed cytotoxicity tumor cell proliferation studies and evaluations. A culture of leukemia K562 was tested in vitro against media concentrations of tetrasilver tetroxide at: 0.5, 1,5, 10, 50, 100, 500 and 1000 ppm.
(§2) The tetroxide was dispersed in pure dimethyl sulfoxide and then diluted with Holipharm NPS buffer PH=7.4 (Holipharm International Co., Wilmington, Del.) in culture media to achieve the aforesaid final assay concentrations. The acronym NPS refers to non phosphate non saline. The culture media comprised RPMI 1640, 90% and fetal bovine serum, 10%. The cancer cultures were obtained from a cell line provided by the American Type Culture Collection (ATCC) and were incubated at 37° C. with 5% CO2 in air atmosphere. The culture was a human chronic myelogenous leukemia, of cell line source ATCCCCL-243.
(§3) As for the actual evaluation, cell proliferation analysis was based on the ability of viable cells to cause alamar blue to change from oxidized (non-fluorescent, blue) to reduced (fluorescent, red) form. Details of the procedure are described in an article by S. Ansar Ahmed et. al. in the Journal of Immunological Methods 170 (1994).
(§4) The ^aIC50 (50% Inhibition Concentration) is the test compound concentration where the increase from times in the number or mass of treated cells was only 50% as much as the corresponding increase in the vehicle-control at the end of experiment. The bTGI (Total Growth Inhibition) is the test compound concentration where the number or mass of treated cells at the end of experiment was equal to that at time. The CLC (50% Lethal Concentration) is the test compound concentration where the number or mass of treated cells at the end of experiment was half that at time.

[4] = system: A549; conditions: A549, estimated
Method: as §1, §2, §3, §4

[5] = system: DLD-i; conditions: estimated
Method: as §1, §2, §3, §4

[6] = system: H33HJ-.JA1; conditions: H33HJ-.JA1, estimated
Method: as §1, §2, §3, §4

[7] = system: HL-60; conditions: HL-60, estimated
Method: as §1, §2, §3, §4

[8] = system: HeDG2; conditions: HeDG2, estimated
Method: as §1, §2, §3, §4

[9] = system: KATO III; conditions: estimated
Method: as §1, §2, §3, §4

[10] = system: MCF-7; conditions: MCF-7, estimated
Method: as §1, §2, §3, §4

[11] = system: MIA PaCa2; conditions: MIA PaCa2, estimated
Method: as §1, §2, §3, §4

[12] = system: PANC-i; conditions: estimated
Method: as §1, §2, §3, §4

[13] = system: PC-3; conditions: PC-3, estimated
Method: as §1, §2, §3, §4

[14] = system: T47D; conditions: estimated
Method: as §1, §2, §3, §4

[15] = system: U937; conditions: U937, estimated
Method: as §1, §2, §3, §4

[16] = system: human malignant melanoma cell line SK-MEL-5
Method: as §1, §2, §3, §4

[17] = system: leukemia K562
Method: as §1, §2, §3, §4

[18] = system: pc-6; conditions: pc-6, estimated
Method: as §1, §2, §3, §4

[19] = system: gynecological yeast infection; conditions: 10 ppm silver tetroxide and 40 ppm sodium persulfate; cited from earlier work
[20] = system: athlete's foot; conditions: solution of 100 ppm of the composition; cited from earlier work
[21] = system: toenail fungus; conditions: 25% suspension of the composition; cited from earlier work
[22] = single IV injection at about 40 ppm of human blood; cited from earlier work
[23] = compared with Ag(I) compounds; cited from earlier work
[24] = Group III, day 20 after treatment

For `[Ag+].[Ag+].[Ag+].[Ag+].[O-2].[O-2].[O-2].[O-2]` [tetrasilver tetroxide], the “ill effects or irritation on application to the skin” value [1] was “without any ill effects or evidence of irritation”, the “sodium, potassium and magnesium blood levels” value ([2]; Group I) was “decreased” and the nodule on palpation ([2]; Group I infiltrative canalicular breast carcinoma, single IV dose 10 ppm in bloodstream, 12 days after treatment) was “the nodule was no longer discernable by touch”. For the same compound, the “patients with increase in body temperature and slight liver enlargement” value ([2]; Group I, 10 minute IV injection subgroup) was “Three of the patients”, the “biopsies reported as normal mammary tissue” value ([2]; Group I, biopsy ordered 19 days after treatment) was 100% and the liver function ([2]; Group I, patients with liver enlargement) was “not affected”. The liver function ([2]; Group II) was “not affected”, the “sodium, potassium and magnesium blood levels” value ([2]; Group II) was “decreased” and the average tumor size ([2]; Group II medular breast cancer, 36 hours after treatment, formerly 10 cm) was 8.4 cm. For the same compound, the “biopsy reported as normal mammary tissue” value ([2]; Group II, biopsy after 24 days) was 90%, the tumor mass ([2]; Group II, day 16 after treatment) was “the huge tumor mass was gone” and the “patients with increase in body temperature and slight liver enlargement” value ([2]; Group II, direct IV injection subgroup) was “One patient”. The “sodium, potassium and magnesium blood levels” value ([2]; Group III) was “deceased”, the average nodule size ([2]; Group III infiltrative lobular breast cancer, 5 days after treatment, from 4 cm) was 2.6 cm and the “biopsies reported as normal mammary tissue” value ([2]; Group III, biopsy ordered day 29 after treatment) was 80%. The average nodule size [2, 24] was 1 cm, the “remission of retracted nipples, nipple bleeding, distorted areola, mass attachment” value [2, 24] was 90% and the “patients with increase in body temperature or slight liver enlargement” value ([2]; Group III, direct injection subgroup) was “None of the patients”. The “period to apparent cure” value ([2]; ductile carcinoma special type, medular breast carcinoma (Group II)) was 30 days, the “period to apparent cure” value ([2]; infiltrative breast carcinoma (Group I)) was 24 days and the “period to apparent cure” value ([2]; infiltrative lobular breast cancer (Group III)) was 30 days. The IC50 [3] was 1.8 ppm, the LC50 [3] was 3.1 ppm and the TGI [3] was 2.4 ppm. It also gave an IC50 [4] of 4.8 ppm, an LC50 [4] of 7.0 ppm and a TGI [4] of 5.8 ppm. The IC50 [5] was 2.5 ppm, the LC50 [5] was 3.6 ppm and the TGI [5] was 3.0 ppm. The IC50 [6] was 0.79 ppm, the LC50 [6] was 3.8 ppm and the TGI [6] was 1.3 ppm. The IC50 [7] was 2.1 ppm, the LC50 [7] was 4.6 ppm and the TGI [7] was 3.1 ppm. The IC50 [8] was 2.6 ppm, the LC50 [8] was 4.7 ppm and the TGI [8] was 3.5 ppm. It also gave an IC50 [9] of 3.2 ppm, an LC50 [9] of 4.1 ppm and a TGI [9] of 3.6 ppm. For the same compound, the IC50 [10] was 3.0 ppm, the LC50 [10] was 5.0 ppm and the TGI [10] was 3.9 ppm. For the same compound, the IC50 [11] was 2.0 ppm, the LC50 [11] was 8.1 ppm and the TGI [11] was 4.0 ppm. The IC50 [12] was 4.8 ppm, the LC50 [12] was 8.6 ppm and the TGI [12] was 6.4 ppm. It also gave an IC50 [13] of 7.7 ppm, an LC50 [13] of 25 ppm and a TGI [13] of 14 ppm. The IC50 [14] was 1.1 ppm, the LC50 [14] was 2.6 ppm and the TGI [14] was 1.6 ppm. It also gave an IC50 [15] of 1.3 ppm, an LC50 [15] of 3.6 ppm and a TGI [15] of 2.2 ppm. For the same compound, the “IC50 (50% Inhibition Concentration)” value [16] was 3.7 ppm, the “LC50 (50% Lethal Concentration)” value [16] was 6.5 ppm and the “TGI (Total Growth Inhibition)” value [16] was 4.9 ppm. The “IC50 (50% Inhibition Concentration)” value [17] was 2.2 ppm, the “LC50 (50% Lethal Concentration)” value [17] was 6.0 ppm and the “TGI (Total Growth Inhibition)” value [17] was 4.6 ppm. The IC50 [18] was 0.9 ppm, the LC50 [18] was 1.1 ppm and the TGI [18] was 1.0 ppm. The “outcome of gynecological yeast infection” value [19] was “curing”, the “outcome of athlete's foot, single case” value [20] was “cure” and the “outcome of toenail fungus, single case” value [21] was “cure”. For the same compound, the “adverse effect on the liver” value [22] was “hepatomegaly”, the liver function [22] was “no reported loss of liver function” and the “staining of organic matter such as skin” value [23] was “did not stain organic matter such as skin”.
